Laboratory results as given in PubChem BioAssay (NCI).
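Five compound concentrations were applied to cells in 96-well plates for 48 hours; endpoints were derived by simple linear interpolation of the resulting dose-response curve. GI50 = concentration required for 50% inhibition of growth. TGI denotes the concentration required for complete inhibition of growth.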

What was measured:
Test in all cases: growth of human tumour cells (NCI), 48 h
A498 renal = tested on: A498 renal
CAKI-1 renal = tested on: CAKI-1 renal
CCRF-CEM leukemia = tested on: CCRF-CEM leukemia
MOLT-4 leukemia = tested on: MOLT-4 leukemia
NCI-H226 lung = tested on: NCI-H226 lung
RPMI-8226 leukemia = tested on: RPMI-8226 leukemia
SF-268 CNS = tested on: SF-268 CNS
SK-OV-3 ovarian = tested on: SK-OV-3 ovarian
ACHN renal = tested on: ACHN renal
DU-145 prostate = tested on: DU-145 prostate
HL-60(TB) leukemia = tested on: HL-60(TB) leukemia
HOP-62 NSCLC = tested on: HOP-62 NSCLC
MDA-MB-435 = tested on: MDA-MB-435
OVCAR-3 ovarian = tested on: OVCAR-3 ovarian
OVCAR-5 ovarian = tested on: OVCAR-5 ovarian
RXF 393 renal = tested on: RXF 393 renal
TK-10 renal = tested on: TK-10 renal
UACC-257 melanoma = tested on: UACC-257 melanoma

CC1(C)CC[C@]2(CO)CC[C@]3(C)C(=CC[C@@H]4[C@@]5(C)CC[C@H](NCO)C(C)(C)[C@@H]5CC[C@]43C)[C@@H]2C1
GI50 (A498 renal): 1380 nM | TGI (A498 renal): 2830 nM | GI50 (CAKI-1 renal): 1850 nM | TGI (CAKI-1 renal): 3520 nM | GI50 (CCRF-CEM leukemia): 2040 nM | TGI (CCRF-CEM leukemia): 5940 nM | GI50 (MOLT-4 leukemia): 1910 nM | TGI (MOLT-4 leukemia): 5100 nM | GI50 (NCI-H226 lung): 2260 nM | TGI (NCI-H226 lung): 5730 nM | GI50 (RPMI-8226 leukemia): 1750 nM | TGI (RPMI-8226 leukemia): 4570 nM | GI50 (SF-268 CNS): 2390 nM | TGI (SF-268 CNS): 6220 nM | GI50 (SK-OV-3 ovarian): 3290 nM | TGI (SK-OV-3 ovarian): 9060 nM

Cl.Fc1c[c-]c(-c2ccccn2)c(F)c1.[Pt].c1ccc([PH+](c2ccccc2)c2ccccc2[PH+](c2ccccc2)c2ccccc2)cc1
GI50 (A498 renal): 49.3 nM | TGI (A498 renal): 215 nM | GI50 (ACHN renal): 157 nM | TGI (ACHN renal): 460 nM | GI50 (CCRF-CEM leukemia): 78 nM | TGI (CCRF-CEM leukemia): 1090 nM | GI50 (DU-145 prostate): 67.7 nM | TGI (DU-145 prostate): 334 nM | GI50 (HL-60(TB) leukemia): 39.5 nM | TGI (HL-60(TB) leukemia): 321 nM | GI50 (HOP-62 NSCLC): 65.5 nM | TGI (HOP-62 NSCLC): 320 nM | GI50 (MDA-MB-435): 82.5 nM | TGI (MDA-MB-435): 268 nM | GI50 (OVCAR-3 ovarian): 62.9 nM | TGI (OVCAR-3 ovarian): 211 nM | GI50 (OVCAR-5 ovarian): 140 nM | TGI (OVCAR-5 ovarian): 415 nM | GI50 (RXF 393 renal): 137 nM | TGI (RXF 393 renal): 296 nM | GI50 (SK-OV-3 ovarian): 88.3 nM | TGI (SK-OV-3 ovarian): 640 nM | GI50 (TK-10 renal): 141 nM | TGI (TK-10 renal): 689 nM | GI50 (UACC-257 melanoma): 107 nM | TGI (UACC-257 melanoma): 698 nM
